Test results: ChEMBL document CHEMBL1158502, “Gomphostenins: two new antimalarial compounds from the leaves of Gomphostemma niveum” (Bioorg Med Chem Lett, 2010)
Converted amounts (≈) assume the structure as drawn.

Legend:
Plasmodium falciparum [1] = test: Antiplasmodial activity against chloroquine-resistant Plasmodium falciparum in human B+ erythrocytes assessed as inhibition of schizont maturation after 24 hrs by conventional parasite culture method; format: functional, organism-based
Plasmodium falciparum [2] = test: Antiplasmodial activity against chloroquine-sensitive Plasmodium falciparum MRC-02 in human B+ erythrocytes assessed as inhibition of schizont maturation after 24 hrs by conventional parasite culture method; format: functional, organism-based; settings: MRC-02, 24 h
Plasmodium falciparum [3] = test: Antiplasmodial activity against chloroquine-sensitive Plasmodium falciparum MRC-02 in human B+ erythrocytes assessed as inhibition of schizont maturation at 0.25 ug/mL after 24 hrs by conventional parasite culture method; format: functional; settings: MRC-02, 24 h

`CC1=CC(=O)C[C@H]2[C@](C)(CCC3=CCOC3=O)[C@H](CO)CC[C@]12C` [GOMPHOSTENIN] showed an IC50 (Plasmodium falciparum [1]) of 37.7 µg/mL (≈ 113 µM) and an IC50 (Plasmodium falciparum [2]) of 38.2 µg/mL (≈ 115 µM).

`CCN(CC)CCCC(C)Nc1ccnc2cc(Cl)ccc12` (stereo not given) [CHLOROQUINE] gave an inhibition at 0.25 µg/mL (Plasmodium falciparum [3]) of 100%.

For `CC(=O)OC[C@@H]1CC[C@]2(C)C(C)=CC(=O)C[C@H]2[C@]1(C)CCC1=CCOC1=O`, the IC50 (Plasmodium falciparum [1]) was 3.2 µg/mL (≈ 8.55 µM) and the IC50 (Plasmodium falciparum [2]) was 3.4 µg/mL (≈ 9.08 µM).
